Paper PMC5068912 (Psychopharmacology, 2016)
Structures can show the parent of a compound that is named as a salt. Where two headings read alike, the source gives them in different places.

What was measured:
[1] = test system: DOR; settings: mouse, in vivo
[2] = test system: C57BL/6 wild-type mice; settings: mouse, in vivo
[3] = test system: DOR; settings: in vitro; ref Mosberg et al. 2014; cited from earlier work
[4] = test system: mice; settings: mouse, in vivo; cited from earlier work
[5] = test system: DOR; settings: in vitro; ref Mosberg et al. 2014; cited from earlier work; remark: listed apart in the source
[6] = test system: MOR knock-out mice; settings: ip, up to 32 mg/kg, n=6
[7] = test system: MOR; settings: pH 7.4
[8] = test system: C57BL/6 wild-type mice; settings: for ED50, WWTW antinociception: mean ± SEM
[9] = test system: MOR; settings: cited from earlier work
[10] = test system: C57BL/6 wild-type mice; settings: mouse, in vivo; remark: listed apart in the source
[11] = test system: wild type littermates
[12] = test system: MOR; settings: in vitro; ref Mosberg et al. 2014; cited from earlier work
[13] = test system: mice; settings: 10 mg/kg ip; ref Ramabadran 1982; cited from earlier work

Oc1ccc2c3c1O[C@H]1c4[nH]c5ccccc5c4C[C@@]4(O)[C@@H](C2)N(CC2CC2)CC[C@]314 [NTI, Naltrindole HCl, reference compound]
SNC80-induced decrease in immobility after pretreatment [1]: blocked
immobility in NTI pretreated mice vs vehicle treated mice [1]: not statistically different from immobility in vehicle treated mice

Dmt-c(SEtS)[DCys-Aic-DPen]-Ser(β-glucose)-NH2 [VRP26]
dose producing maximal antinociceptive effect [2]: 10 mg/kg
lowest, maximally-effective, acute dose in the WWTW assay [2]: 10 mg/kg
ED50, WWTW antinociception ([2]; ip): 5.44 ± 0.10 mg/kg
ED50, WWTW antinociception ([2]; sc): 5.08 ± 0.23 mg/kg
antagonism at DOR [3]: antagonism at DOR
acute tolerance [4]: does not produce acute tolerance
antinociception, WWTW [4]: dose-dependent antinociception
affinity for DOR [5]: low nanomolar affinity
increase in tail withdrawal latency [6]: failed to produce a significant increase in tail withdrawal latency up to 32 mg/kg
SNC80-induced decrease in immobility after pretreatment [1]: partially blocked SNC80-induced decreases in immobility
immobility, compound alone vs control ([1]; sc, 10 mg/kg): no effect on immobility as compared with control
relative efficacy at MOR [7]: 0.28
effect of pretreatment (vehicle vs MNTX) on VRP26 antinociception ([8]; 10 mg/kg MNTX ip, two way ANOVA, effect of dose F(4, 40) = 393.6, p < 0.0001): no effect of pretreatment (vehicle vs MNTX)
ED50, WWTW antinociception ([8]; VRP26 ip, pretreated with 10 mg/kg MNTX ip, n=6): 4.73 ± 0.13 mg/kg
dose-dependence of tail withdrawal latency increase ([8]; VRP26 ip, vehicle and 10 mg/kg MNTX pretreated mice, n=6): dose-dependent increases in tail withdrawal latency
ED50, WWTW antinociception ([8]; VRP26 ip, vehicle pretreated mice, n=6): 4.73 ± 0.22 mg/kg
dose producing maximal response ([8]; ip, both vehicle and MNTX pretreated mice): 10 mg/kg
affinity balance between MOR and DOR ([9]; discussion statement, source not given there): balanced affinity between MOR and DOR
affinity for MOR ([9]; in vitro, ref Mosberg et al. 2014): low nanomolar affinity
ED50 of VRP26, day 1, saline treated group [10]: 5.35 ± 0.17 mg/kg
ED50 of VRP26, day 8, saline treated group [10]: 5.07 ± 0.23 mg/kg
shift in the dose response curve after chronic treatment [10]: no shift in the dose response curve
tail withdrawal latency, wild type vs MOR knock-out littermates ([11]; 10 mg/kg ip, t(10) = 9.161, p < 0.0001): significantly increased withdrawal latency in wild type mice as compared with MOR knock-out littermates
dose producing maximal antinociceptive effect ([11]; ip, wild type littermates): 10 mg/kg
ED50, WWTW antinociception ([11]; ip, wild type littermates of MOR knock-out mice, mean ± SEM, n=6): 4.77 ± 0.32 mg/kg
agonist activity at MOR [12]: agonist activity at MOR similar to morphine

C[N+]1(CC2CC2)CC[C@]23c4c5ccc(O)c4O[C@H]2C(=O)CC[C@@]3(O)[C@H]1C5 (some centres unmarked) [MNTX, methylnaltrexone HBr]
block of opioid effects [13]: block peripheral, but not central, effects of opioids
